# Test system: WKY rats
# Assay: in vivo gastric distension model (barostat, ramp and tonic distension) in conscious WKY rats
# Set-up: species or system Wistar Kyoto rats
# Description: An in vivo gastric distension model is used as a model for functional gastrointestinal disorders, in particular for functional dyspepsia (Bayati A, Astin M, Ekman C, Mattsson H. Wistar Kyoto rats have impaired gastric adaptive accommodation in response to gastric distension. Gastroenterology 2003; 124 (4, suppl 1): W1471 (abstract)).
# The gastric distension model enables detailed analysis of the physico-mechanical properties of the stomach, e.g. basal gastric tone, threshold for accommodation, accommodation rate, accommodation volume, and maximal gastric volume. […] Furthermore, it has been shown that patients with Functional Dyspepsia as well as Wistar Kyoto (WKY) rats have an impaired gastric adaptive response and also a lower total gastric volume as compared to healthy subjects and Sprague Dawley (SD) rats, respectively. In addition, the method has shown to be reproducible and reliable. Moreover, the advantage of the presently used barostat technique compared to other barostat techniques normally used in experimental clinical studies is that it is possible to discriminate between if a compound exerts its effect directly on gastric smooth muscles or if the effect involves the vagal reflex mechanism.
# The rats are equipped with fistulas chronically implanted into the stomach. During gastric barostat experiments, a small inflatable plastic bag with a spherical shape is inserted through fistula into the glandular part of the stomach (middle to distal part in the rat). The experiments are performed in conscious rats. For detailed analysis of the physico-mechanical properties of the stomach, a combination of ramp and tonic distension paradigm is used. Pressure and volume data collected during experiments are saved for and further analysis.
# In order to determine an animal's maximum gastric accommodation capacity, a balloon is inserted into the stomach of the animal and a four phase protocol which includes a start phase, a ramp phase, a tonic phase and an end phase is performed. A barostat system maintains the pressure by pumping air into and out of the balloon. The pressure applied to the balloon and the corresponding changes to the volume of the balloon are monitored throughout, e.g., using any barostat system known in the art (e.g., see Toma et al, Neurogastroenterol. Mot., 8, 19-28, 1996).
# During the start phase a minimum distension pressure, e.g., 1 mmHg, is applied to the balloon until base line values are obtained. This is followed by a Ramp Phase. During this phase the pressure applied to the balloon is increased linearly with a constant increase in pressure to a preset maximum value. This second phase is then followed by the Tonic Phase at which the preset maximum pressure is kept constant. Finally, the pressure is rapidly dropped to the starting minimum distension pressure and this period is known as the End Phase.
# To determine if an agent, e.g., a compound is useful in the treatment of FD, the maximum gastric accommodation rate in the WKY rat following administration of the compound is calculated. A compound of interest will be a compound that alters the maximum gastric accommodation rate in the animal and this is calculated by determining a difference in the maximum gastric accommodation rate before and after administration of the compound.
# The Wistar Kyoto rats (WKY; M&B Denmark) are starved about 6 or 18 hours before each experiment depending on if the experiments are performed in the morning or in the afternoon. […]
# [1] = 10 μmol/kg intravenously 3-5 min before start of ramp phase, compared to the control situation, FIG. 1
smiles,measurement,setting,value
"Cc1cccc(C#Cc2ccccc2)n1 [MPEP, 2-methyl-6-(phenylethynyl)-pyridine]",gastric volume during the ramp phase,[1],increase
same,gastric volume during the tonic phase,[1],increase
same,accommodation rate (the slope of volume curve during the tonic phase),"10 μmol/kg intravenously, FIG. 1",increased
same,maximum gastric volume,"10 μmol/kg intravenously, compared to the control situation, FIG. 1",increased
same,accommodation capacity,"10 μmol/kg intravenously, conclusion",increases

# From US20070123551A1, “Use of metabotropic glutamarate receptor 5 (mglur5) antagonists for the treatment of gastrointestinal disorders” (priority 2003, published 2007)
